Experiments:
Test in all cases: relative viability (nuclei count vs DMSO), 5 days (fraction); higher = more cells survive
[1] = compound: Cc1ccccc1C(C(=O)NC1CCCCC1)N(C(=O)Cn1ccnc1C)c1cccc(F)c1 [IDH-C35] + CC(=O)c1c(C)c2cnc(Nc3ccc(N4CCNCC4)cn3)nc2n(C2CCCC2)c1=O [Palbociclib] (partner 0.5 µM)
In short: (§1)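 Nuclei were stained with Hoechst during a one-step fixation (final 0.05% Triton X-100, 1% formaldehyde, 1 ug/ml Hoechst) carried out 5 days after dosing, then counted on 4× images. The cells, lung cancer lines in 1536-well plates, had been dosed by pin tool the day after seeding with one drug alone or a fixed anchor-drug dose plus five library-drug doses (not always all listed) in √10 steps. Relative viability is the nuclei count in treated wells divided by that in vehicle wells, and each value is the median of duplicate plates.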

[2] = compound: CC1=C(C(=NN1)C)CC2=C(C3=C(S2)N(C(=O)N(C3=O)C)CC(C)C)C(=O)N4C[C@@H](CO4)O + C[C@@H](Oc1cc(-c2cnn(C3CCNCC3)c2)cnc1N)c1c(Cl)ccc(F)c1Cl [Crizotinib] (partner 1 µM)
In short: as §1

[3] = compound: CC1=C(C(=NN1)C)CC2=C(C3=C(S2)N(C(=O)N(C3=O)C)CC(C)C)C(=O)N4C[C@@H](CO4)O + C[C@]1(O)C[C@@H](c2nc(-c3ccc4ccc(-c5ccccc5)nc4c3)c3c(N)nccn32)C1 [Linsitinib] (partner 1 µM)
In short: as §1

[4] = compound: Cc1ccccc1C(C(=O)NC1CCCCC1)N(C(=O)Cn1ccnc1C)c1cccc(F)c1 [IDH-C35] + Nc1ncn([C@H]2C[C@H](O)[C@@H](CO)O2)c(=O)n1 [Decitabine] (partner 2 µM)
In short: as §1

Cell Line | relative viability ([1]; first compound 0.08 µM) | relative viability ([1]; first compound 0.253 µM) | relative viability ([1]; first compound 0.8 µM) | relative viability ([1]; first compound 2.53 µM) | relative viability ([1]; first compound 8 µM) | relative viability ([2]; first compound 0.0025 µM) | relative viability ([2]; first compound 0.007906 µM) | relative viability ([2]; first compound 0.025 µM) | relative viability ([2]; first compound 0.07906 µM) | relative viability ([2]; first compound 0.25 µM) | relative viability ([3]; first compound 0.0025 µM) | relative viability ([3]; first compound 0.007906 µM) | relative viability ([3]; first compound 0.07906 µM) | relative viability ([3]; first compound 0.25 µM) | relative viability ([4]; first compound 0.08 µM) | relative viability ([4]; first compound 0.253 µM) | relative viability ([4]; first compound 0.8 µM) | relative viability ([4]; first compound 2.53 µM) | relative viability ([4]; first compound 8 µM) | relative viability ([3]; first compound 0.025 µM)
NCI-H2405 | 0.538 | 0.512 | 0.525 | 0.561 | 0.525 | 0.91 | 0.805 | 0.727 | 0.748 | 0.805 | 0.972 | 0.902 | 0.881 | 0.73 | 0.701 | 0.751 | 0.652 | 0.775 | 0.668 | –
NCI-H3122 | 0.183 | 0.178 | 0.186 | 0.187 | 0.182 | 0.281 | 0.26 | 0.276 | 0.259 | 0.299 | 1.04 | 1.08 | 0.976 | 0.947 | 0.432 | 0.428 | 0.386 | 0.473 | 0.458 | 0.99
PC-3 [JPC-3] | 0.563 | 0.532 | 0.558 | 0.587 | 0.534 | 1.02 | 0.898 | 0.93 | 0.861 | 1.08 | 0.966 | 0.945 | 0.958 | 1.01 | 0.843 | 0.795 | 0.864 | 0.806 | 0.807 | 0.974
PC-14 | 0.515 | 0.511 | 0.484 | 0.573 | 0.441 | 0.91 | 0.904 | 0.881 | 0.932 | 0.954 | 1.06 | 1.02 | 0.936 | 0.94 | 0.211 | 0.206 | 0.239 | 0.226 | 0.214 | 0.93
